Experiments:
[1] = tested on: SKMEL 188 (human melanoma); experiment: Cell photosensitization, filtered halogen lamp, MTT; type: cell-based; conditions: [Luzitin-Cl] = 20 μM
Protocol: (§1) Irradiation in in vitro experiments was performed using either a halogen lamp or a laser source. In the first case, a 500 W halogen lamp was placed 50 cm from the irradiated plate to insure a homogeneous irradiation. A cooled water filter (d=35 mm) and a 600 nm cut off filter were placed between the lamp and samples. The fluence rate reaching samples was 3 mW/cm^2. The emission spectrum of the halogen lamp was recorded using a spectroradiometer IL2000 (Spectrocube), FIG. 1. In the second case, three Lynx external cavity diode lasers TEC 500 powered by PilotPC 500 Laser Controllers (Sacher Lasertechnik, Marburg, Germany) were employed. The laser energies were stable at 40 mW for the 748 nm laser, 10 mW for the 649 laser and 10 mW for the 633 laser. The laser energies were regularly measured with a Coherent LaserCheck. In some in vitro experiments, the laser light was focused on an optical fiber through a collimator in microbench, and delivered to the cells. This system reduced the 748 nm laser light to 30 mW.
The cell lines employed in halogen lamp irradiation were the MCF7 (human breast carcinoma), SKMEL 188 (human melanoma) and S91/I3 (mouse melanoma) cells. They were used both for cytotoxicity and photocytotoxicity experiments. MCF7 cells were grown supplemented with 10% fetal calf (FBS) serum, 25 units/ml of penicillin, and 25 μg/ml of streptomycin. Human melanoma cells SKMEL-188 were grown in F10 medium supplemented with 10% fetal calf serum (FCS), 100 units/ml of penicillin, and 100 μg/ml of streptomycin. I3 subline of Cloudman S91 melanoma cells were cultured in RPMI 1640 medium supplemented with 100 units/ml of penicillin, 100 μg/ml streptomycin and 5% fetal calf serum (FCS) (Gibco BRL). […]
Cytotoxicity. Cell metabolic efficiency and viability were determined by the uptake and reduction of 3-(4,5-dimethylthiazol-2-yl)-2,5-diphenyl tetrazolium bromide (MTT) to an insoluble formazan dye by cellular microsomal enzymes. […] The 96-well culture plate was shaken for 0.5 min at room temperature and immediately read for optical density at 560 nm using an ELISA reader (GENios Plus; Tecan Trading AG, Switzerland). The cell survival was expressed by the absorbance changes of the formazan salt, and survival rate was given as the percent ratio of viable treated cells vs. the number of viable untreated cells. Number of cells was determined from linear regression of a calibration curve.
Cell photosensitization. […] The values were obtained from three independent experiments and expressed as percent of cell survival with reference to control cells, which were manipulated in the same manner but without incubation with photosensitizer and without illumination.

[2] = tested on: MCF7 (human breast carcinoma); experiment: as above; type: cell-based
Protocol: as §1
(§2) The cell lines employed in halogen lamp irradiation were the MCF7 (human breast carcinoma), SKMEL 188 (human melanoma) and S91/I3 (mouse melanoma) cells. They were used both for cytotoxicity and photocytotoxicity experiments. MCF7 cells were grown supplemented with 10% fetal calf (FBS) serum, 25 units/ml of penicillin, and 25 μg/ml of streptomycin. Human melanoma cells SKMEL-188 were grown in F10 medium supplemented with 10% fetal calf serum (FCS), 100 units/ml of penicillin, and 100 μg/ml of streptomycin. I3 subline of Cloudman S91 melanoma cells were cultured in RPMI 1640 medium supplemented with 100 units/ml of penicillin, 100 μg/ml streptomycin and 5% fetal calf serum (FCS) (Gibco BRL). All cell lines were cultivated as monolayer in Petri dishes of 60 mm diameter and incubated at 37° C. in a humid atmosphere containing 5% CO2.
(§3) Cytotoxicity. Cell metabolic efficiency and viability were determined by the uptake and reduction of 3-(4,5-dimethylthiazol-2-yl)-2,5-diphenyl tetrazolium bromide (MTT) to an insoluble formazan dye by cellular microsomal enzymes. The cell lines were grown in RPMI medium with 10% fetal calf serum, penicillin and streptomycin. Cells were maintained in 5% CO2, 95% air and 100% humidity. For determining cytotoxicity, these cells were plated in 96-well plates at a density of 1×10^4 cells well in complete media. After 24 h, the cells were incubated with photosensitizers at different concentrations (0.25 up to 50 μM) for 18 hours at 37° C. The cells were then washed twice with PBS and incubated in growth medium at 37° C. for 24 h. Next, the medium was replaced by 100 μl of fresh medium and 20 μl of MTT, and the cells were incubated with MTT for 3 h, with a final concentration of 0.5 mg/ml. Then the culture medium was replaced with DMSO-methanol solution (1:1) to dissolve the blue formazan crystals. The 96-well culture plate was shaken for 0.5 min at room temperature and immediately read for optical density at 560 nm using an ELISA reader (GENios Plus; Tecan Trading AG, Switzerland). The cell survival was expressed by the absorbance changes of the formazan salt, and survival rate was given as the percent ratio of viable treated cells vs. the number of viable untreated cells. Number of cells was determined from linear regression of a calibration curve.
(§4) Cell photosensitization. SKMEL 188, S91 and MCF7 cells were prepared as described above. […] The cells were incubated for 12 h at 37° C. and then irradiated at a 0.53 mW cm^2 fluence rate and in doses ranging from 0.1 to 0.64 J cm^2. We recall that photosensitizer uses only ca. ⅕ of the available fluence rate of the filtered halogen lamp. The MTT test was performed 24 h after irradiation. The values were obtained from three independent experiments and expressed as percent of cell survival with reference to control cells, which were manipulated in the same manner but without incubation with photosensitizer and without illumination. […]

S91 (mouse melanoma) = experiment: as above; type: cell-based; conditions: [Luzitin-Cl] = 20 μM
Protocol: as §1, §2, §3, §4

[3] = In vivo toxicity in the dark; set-up: species or system DBA/2 mice; conditions: for sensitivity to light: first 6 days
Description: The mice used in the present study were form two sources. Dark toxicity, biodistribution and farmacokinetic studies employed DBA/2 mice, weighing 20-30 g, from the animal breeding facility at the Faculty of Biochemistry, Biophysics and Biotechnology, Jagiellonian University, Krakow. The mice were kept on a standard laboratory diet with free access to drinking water. The use of such animals for experimental purposes was approved by the Jagiellonian University Committee for Ethics of Experiments on Animals (decision No. 384/99). Such mice were also employed in PDT.
The mice were divided into the following experimental groups:
The solutions of Luzitin-Cl (0.5 ml) were injected subcutaneously and for 30 days the animals were closely observed. […] They manifested such sensitivity by moving away from light sources directly pointed at them. […] After 30 days the animals were anaesthetized using Morbital (Biowet, Poland), their organs and tissue samples were excised, and blood morphology as well as histology of selected organs tests was performed.

[4] = Bacteriochlorin pharmacokinetics and biodistribution following ip administration, S91 tumor-bearing mice; conditions: 10 mg/kg ip
[5] = minipig
[6] = [Luzitin-Cl] = 20 μM, filtered halogen lamp

SMILES | LD50 (light dose to kill 50% of the cells) [1] | LD90 (light dose to kill 90% of the cells) [1] | cell kill ([2]; 5 μM, filtered halogen light 0.6 J/cm^2, 12 h incubation) | LD50 (light dose to kill 50% of the cells) [2, 6] | LD90 (light dose to kill 90% of the cells) [2, 6] | LD50 (light dose to kill 50% of the cells) (S91 (mouse melanoma)) | LD90 (light dose to kill 90% of the cells) (S91 (mouse melanoma)) | sensitivity to light ([3]; 15 mg/kg subcutaneous, some animals) | sensitivity to light ([3]; 20 mg/kg subcutaneous) | body mass changes ([3]; 2-20 mg/kg subcutaneous, 30 days) | blood morphology and histology of selected organs ([3]; 2-20 mg/kg subcutaneous, after 30 days) | accumulation in the skin [4] | time to clearance from most of the organs [4] | concentration in tumor relative to muscle ([4]; one day after administration) | depth of diffusion through stratum corneum and epidermis [5] | time to diffuse through all the epidermis [5] | side effects of topical gel formulation ([5]; in vivo)
O=S(=O)(O)c1ccc(Cl)c(-c2c3nc(c(-c4cc(S(=O)(=O)O)ccc4Cl)c4ccc([nH]4)c(-c4cc(S(=O)(=O)O)ccc4Cl)c4nc(c(-c5cc(S(=O)(=O)O)ccc5Cl)c5ccc2[nH]5)CC4)CC3)c1 [Luzitin-Cl, 5,10,15,20-tetrakis(2-chloro-5-sulfonylphenyl)bacteriochlorin] | 0.1 J/cm^2 | 0.32 J/cm^2 | 100% | 0.08 J/cm^2 | 0.25 J/cm^2 | 0.15 J/cm^2 | 0.3 J/cm^2 | slight sensitivity | revealed sensitivity to the light | no significant mass changes were observed | No changes were observed in the blood or in organs | negligible | 24 h | 3 times |  |  | 
CNS(=O)(=O)c1ccc(F)c(-c2c3nc(c(-c4cc(S(=O)(=O)NC)ccc4F)c4ccc([nH]4)c(-c4cc(S(=O)(=O)NC)ccc4F)c4nc(c(-c5cc(S(=O)(=O)NC)ccc5F)c5ccc2[nH]5)CC4)CC3)c1 [Luzitin-FMet, 5,10,15,20-tetrakis(2-fluoro-5-N-methylsulfamoylphenyl)bacteriochlorin] |  |  |  |  |  |  |  |  |  |  |  |  |  |  | 50 microns | ≤ 3 h | None of the animals, and in particular the animal that remained alive, showed evidence for side effects
